Like-named read-outs stand apart in the source and are kept apart here.
Key:
[1] = tested on: xanthine oxidase; assay: Effect of allopurinol predosing on PZA and POA exposure in NZW rabbits; type: in vivo, rabbit; details: for AUC: female, New Zealand white, rabbit, plasma, 40 mg/kg
[2] = Plasma pharmacokinetics of oral PZA or POA in naïve New Zealand white rabbits; type: in vivo, rabbit
[3] = type: in vivo, human; details: for CmaxPZA: Korean subjects, PZA 22–30 mg/kg
[4] = in vivo; details: BALB/c, mouse, po, 150 mg/kg
[5] = tested on: acute intravenous infection; details: administered at 2 to 5% in food; cited from earlier work
[6] = Plasma pharmacokinetics of oral PZA or POA in naïve guinea pigs
[7] = in vivo; details: female, CD-1, mouse, plasma, po, 150 mg/kg
[8] = tested on: M. tuberculosis strains H37Rv and H37Ra; assay: In vitro growth inhibitory assay in liquid medium; type: cell-based, Mycobacterium tuberculosis
[9] = Oral pharmacokinetics of POA in preclinical species; type: in vivo; details: single oral POA dose; mice, guinea pigs and rabbits
[10] = not given; remark: listed apart in the source
[11] = tested on: M. tuberculosis H37Rv or H37Ra; assay: Susceptibility on solid media; type: cell-based, Mycobacterium tuberculosis
[12] = C3HeB/FeJ, mouse, in vivo
[13] = Solubility of POA in aqueous media; type: physicochemical
[14] = target: T1, xanthine oxidase (Mus musculus, UniProt Q00519); details: female, CD-1, mouse, in vivo, po, 40 mg/kg
T1 sequence (Q00519 whole entry): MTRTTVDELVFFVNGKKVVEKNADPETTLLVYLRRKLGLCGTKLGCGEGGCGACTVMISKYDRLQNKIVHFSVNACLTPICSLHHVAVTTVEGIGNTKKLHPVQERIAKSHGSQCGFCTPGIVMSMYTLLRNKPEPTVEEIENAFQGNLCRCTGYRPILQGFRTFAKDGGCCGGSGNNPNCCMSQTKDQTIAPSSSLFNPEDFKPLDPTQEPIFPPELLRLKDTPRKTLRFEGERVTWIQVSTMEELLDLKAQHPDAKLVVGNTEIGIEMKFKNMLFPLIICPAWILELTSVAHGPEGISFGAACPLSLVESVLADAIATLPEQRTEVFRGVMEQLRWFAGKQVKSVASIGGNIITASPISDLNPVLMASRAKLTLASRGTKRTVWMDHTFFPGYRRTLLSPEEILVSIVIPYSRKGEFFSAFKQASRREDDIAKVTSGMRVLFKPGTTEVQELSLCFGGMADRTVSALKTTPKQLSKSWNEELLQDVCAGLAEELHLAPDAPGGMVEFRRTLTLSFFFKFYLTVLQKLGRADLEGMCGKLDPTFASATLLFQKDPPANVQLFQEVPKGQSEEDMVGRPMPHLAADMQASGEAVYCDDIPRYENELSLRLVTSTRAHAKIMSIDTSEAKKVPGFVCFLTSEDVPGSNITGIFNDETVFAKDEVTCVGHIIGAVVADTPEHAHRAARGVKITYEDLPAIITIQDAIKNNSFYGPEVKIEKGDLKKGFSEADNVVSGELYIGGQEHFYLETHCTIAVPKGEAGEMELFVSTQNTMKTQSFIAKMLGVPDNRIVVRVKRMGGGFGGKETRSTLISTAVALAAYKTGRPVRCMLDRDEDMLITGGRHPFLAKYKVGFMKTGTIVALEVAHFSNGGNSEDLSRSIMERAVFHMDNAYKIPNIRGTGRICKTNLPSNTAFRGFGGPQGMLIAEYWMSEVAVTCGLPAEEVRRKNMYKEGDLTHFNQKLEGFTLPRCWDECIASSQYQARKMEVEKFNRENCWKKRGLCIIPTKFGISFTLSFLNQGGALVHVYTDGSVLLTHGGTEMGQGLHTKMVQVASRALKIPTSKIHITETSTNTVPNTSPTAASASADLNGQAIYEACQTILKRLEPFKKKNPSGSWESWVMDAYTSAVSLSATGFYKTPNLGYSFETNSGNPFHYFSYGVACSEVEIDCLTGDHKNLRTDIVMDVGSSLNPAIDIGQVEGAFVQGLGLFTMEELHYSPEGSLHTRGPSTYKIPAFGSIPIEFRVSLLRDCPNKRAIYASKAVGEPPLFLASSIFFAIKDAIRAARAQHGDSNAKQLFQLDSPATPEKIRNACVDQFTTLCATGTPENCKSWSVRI

[15] = female, rabbit, in vivo, po, 250 mg/kg
[16] = not given; remark: listed apart in the source
[17] = target: T1, xanthine oxidase; assay: Effect of allopurinol predosing on PZA and POA exposure in CD-1 mice; details: allopurinol pretreatment either 4 doses of 20 mg/kg or 1 dose of 40 mg/kg
[18] = cited from earlier work
[19] = Plasma pharmacokinetics of PZA and POA metabolite in uninfected marmosets
[20] = in vivo; details: female, New Zealand white (NZW), rabbit, po, 250 mg/kg
[21] = in vivo; details: female, C3HeB/FeJ, mouse, plasma, po, 150 mg/kg
[22] = not given; remark: listed apart in the source
[23] = in vivo; details: C3HeB/FeJ, mouse, po
[24] = both, human, plasma, oral, 1500 mg
[25] = over a 24 h period, 14 TB patients, 1500 mg PZA, from PK model
[26] = female, Hartley, guinea pig, in vivo, po, 300 mg/kg
[27] = female, BALB/c, mouse, in vivo, po, 150 mg/kg
[28] = female, New Zealand white, rabbit, plasma, po
[29] = both, human, plasma, po, 1500 mg

Work on `Oc1ncnc2[nH]ncc12` [allopurinol] yielded an AUC [1] of 8 µg·h/mL.
In the case of `O=C(O)c1cnccn1` [POA, pyrazinoic acid], the AUC ([2]; female, New Zealand white, rabbit, plasma, po, 200 mg/kg) is reported as 2010 µg·h/mL, the CmaxPOA ([2]; naïve rabbits, single oral POA dose 200 mg/kg, average (SD)) is reported as 244 (51) µg/mL and the “POA/PZA exposure ratio in plasma” value ([3]; active TB patients) is reported as “approximately 0.2”. The clearance [3, 24] was 31.7 mL/min, the “POA/PZA exposure ratio (range)” value [3, 25] was 17–32% and the “median POA/PZA exposure ratio” value [3, 25] was 19%. For the same compound, the AUC ([4]; female) was 287 µg·h/mL, the “efficacy in a mouse model of acute intravenous infection” value [5] was “lack of POA efficacy” and the AUC [6, 26] was 449 µg·h/mL. The CmaxPOA ([6]; naïve guinea pigs, single oral POA dose 300 mg/kg, average (SD)) was 165 (74) µg/mL, the CmaxPOA (naïve CD1 mice, single oral POA dose 150 mg/kg, average (SD)) was 102 (32) µg/mL and the AUC [7] was 136 µg·h/mL. The “potency relative to PZA in liquid medium” value ([8]; pH 5.5, 5.8 and 6.5, H37Ra and H37Rv) was “consistently more potent than PZA”, the “fold more potent than PZA in vitro” value ([8]; various pH and inocula) was 2- to 4 fold and the oral bioavailability [9] was “orally bioavailable”. The “concentrations at 24 h post PZA dosing” value [10] was “below the limit of quantification”, the tissue-to-plasma ratios ([10]; female, New Zealand White, rabbit, in vivo) was 0.2 and 0.5 and the “effect of allopurinol predosing on POA exposure” value ([1]; rabbits, allopurinol 3 doses of 40 mg/kg followed by oral PZA 150 mg/kg) was “no effect”. For the same compound, the “potency relative to PZA on agar plates” value [11] was “twice as potent as PZA”, the “CLm/Fm, oral clearance of the POA metabolite” value ([12]; po) was 2.18 (6) L/h/kg and the “Vm/Fm, oral volume of distribution of the POA metabolite” value ([12]; po) was 0.47 (13) L/kg. The “AUCPOA met (POA metabolite derived from dosing of PZA)” value (“AUCPOA met” below) ([12]; po, 150 mg/kg) was 76 (16) µg·h/ml, the AUCPOA/AUCPZA ratio ([12]; po, 150 mg/kg) was 0.18 (0.02) and the CmaxPOA met ([12]; po, 150 mg/kg) was 16(5) µg/mL. The “solubility in aqueous media” value [13] was “poor solubility”, the “fold increase in POA exposure” value [14] was 12 fold and the “AUCPOA met” value ([15]; New Zealand white (NZW)) was 504 (139) µg·h/ml. For the same compound, the CmaxPOA met ([15]; New Zealand white (NZW)) was 111 (27) µg/mL, the AUCPOA/AUCPZA ratio ([15]; New Zealand white) was 1.70 (0.21) and the “AUCPOA met” value [16, 27] was 131 (13) µg·h/ml. For the same compound, the AUCPOA/AUCPZA ratio [16, 27] was 0.38 (0.02), the CmaxPOA met [16, 27] was 43 (10) µg/mL and the CmaxPOA ([16]; naïve BalbC mice, single oral POA dose 150 mg/kg, average (SD)) was 155(33) µg/mL.
In the case of `O=C(O)c1cnc(O)cn1` [5-hydroxy-POA, 5-hydroxypyrazinoate], the “change in 5-hydroxy-POA exposure” value [17] is reported as “concomitant decrease”.
`NC(=O)c1cnccn1` [PZA, pyrazinamide] gave a CL/F [2, 28] of 12.5 mL/min/kg, a Vd/F [2, 28] of 3.72 L/kg and a k el [2, 28] of 5.56e-05 s⁻¹. For the same compound, the AUC ([2]; female, New Zealand white, rabbit, plasma, po, 300 mg/kg) was 457 µg·h/mL, the “human-equivalent PZA dose” value ([2]; naïve rabbits, calculated to achieve a target AUC of 450 mg·h/L) was 300 mg/kg and the CmaxPZA ([2]; naïve rabbits, single oral PZA dose 300 mg/kg, average (SD)) was 82 (17) µg/mL. The “ka, absorption rate constant” value ([2]; rabbits, PK model typical value (standard error)) was 4.8 (2) h^−1, the CmaxPZA ([3]; single dose) was 43 µg/mL and the CmaxPZA ([3]; steady state) was 59 µg/mL. For the same compound, the “ka, absorption rate constant” value ([3]; TB patients, PK model typical value (standard error)) was 0.72 (18) h^−1, the clearance [3, 24] was 28.3 mL/min and the k el [3, 24] was 1.58e-05 s⁻¹. For the same compound, the AUC ([3]; both, human, plasma, po) was 617 to 738 µg·h/mL, the CL/F [3, 29] was 0.467 mL/min/kg and the Vd/F [3, 29] was 0.49 L/kg. For the same compound, the ““normal” peak plasma concentrations” value ([18]; 1 to 2 h postdose) was 20 to 60 µg/mL, the “mean AUC” value ([18]; TB patients receiving a standard daily dose of 1500 mg PZA) was 380 to 625 µg·h/mL and the AUC [4] was 388 µg·h/mL. It also gave a CL/F ([4]; female) of 7.83 mL/min/kg, a Vd/F ([4]; female) of 0.78 L/kg and a k el ([4]; female) of 0.000167 s⁻¹. It also gave an AUC [6, 26] of 342 µg·h/mL, a CL/F [6, 26] of 12.5 mL/min/kg and a Vd/F [6, 26] of 2.54 L/kg. The k el [6, 26] was 8.06e-05 s⁻¹, the “ka, absorption rate constant” value ([6]; guinea pigs, PK model typical value (standard error NA)) was 7.7 (NA) h^−1 and the “human-equivalent PZA dose” value ([6]; naïve guinea pigs, calculated to achieve a target AUC of 450 mg·h/L) was 400 mg/kg. For the same compound, the CmaxPZA ([6]; naïve guinea pigs, single oral PZA dose 300 mg/kg, average (SD)) was 179 (100) µg/mL, the AUC ([19]; marmoset (Callithrix jacchus), in vivo, po, 125 mg/kg) was 743 µg·h/mL and the “ka, absorption rate constant” value ([19]; marmosets, PK model typical value (standard error)) was 0.81 (7) h^−1. For the same compound, the CL/F ([19]; monkey, in vivo, po, 125 mg/kg) was 3.83 mL/min/kg, the Vd/F ([19]; monkey, in vivo, po, 125 mg/kg) was 1.1 L/kg and the k el ([19]; monkey, in vivo, po, 125 mg/kg) was 5.83e-05 s⁻¹. For the same compound, the “human-equivalent PZA dose” value ([19]; naïve marmosets, calculated to achieve a target AUC of 450 mg·h/L) was 100 mg/kg, the CmaxPZA ([19]; naïve marmosets, single oral PZA dose 125 mg/kg, average (SD)) was 80 (47) µg/mL and the “ka, absorption rate constant” value (CD1 mice, PK model typical value (standard error)) was 15 (11) h^−1. For the same compound, the CmaxPZA (naïve CD1 mice, single oral PZA dose 150 mg/kg, average (SD)) was 109 (11) µg/mL, the AUC [7] was 210 µg·h/mL and the CL/F [7] was 12.5 mL/min/kg. For the same compound, the Vd/F [7] was 1.28 L/kg, the k el [7] was 0.000161 s⁻¹ and the “susceptibility of H37Rv compared with H37Ra” value ([8]; across the pH range) was “less susceptible to PZA than H37Ra”. The “concentrations at 24 h post PZA dosing” value [10] was “below the limit of quantification”, the AUC [20] was 296 µg·h/mL and the AUC [21] was 580 µg·h/mL. It also gave a CL/F [21] of 10.3 mL/min/kg, a Vd/F [21] of 1.02 L/kg and a k el [21] of 0.000169 s⁻¹. For the same compound, the “human-equivalent PZA dose” value [12] was 160 mg/kg, the “ka, absorption rate constant” value [12] was 220 (1) h^−1 and the CmaxPZA ([12]; po, 150 mg/kg) was 89 (20) µg/mL. The “ka, absorption rate constant” value ([22]; C3HeB/FeJ mice, PK model typical value (standard error)) was 4.47 (21) h^−1, the CmaxPZA ([22]; naïve C3HeB/FeJ mice, single oral PZA dose 150 mg/kg, average (SD)) was 190 (24) µg/mL and the CmaxPZA ([15]; New Zealand white (NZW)) was 90 (35) µg/mL. It also gave a CL/F [23] of 6.33 mL/min/kg, a Vd/F [23] of 1.85 L/kg and an AUC ([23]; 150 mg/kg) of 425 µg·h/mL. For the same compound, the “ka, absorption rate constant” value ([16]; BALB/c mice, PK model typical value (standard error)) was 18 (8) h^−1, the “human-equivalent PZA dose” value ([16]; BALB/c, mouse, in vivo) was 175 mg/kg and the CmaxPZA [16, 27] was 163 (38) µg/mL.
Compound `O=c1[nH]c(=O)c2c[nH]nc2[nH]1` [oxypurinol] has an AUC [1] of 124 µg·h/mL.

Source: publication PMC4467917 (ACS infectious diseases, 2015)
